Laboratory results: ChEMBL document CHEMBL1155926, “Parallel synthesis and antileishmanial activity of ether-linked phospholipids” (Bioorg Med Chem Lett, 2008)

Test system: Leishmania donovani
Assay: Antileishmanial activity against Leishmania donovani axenic amastigotes after 72 hrs by serial dilution method
Type: functional, organism-based

SMILES | IC50 [µM]
C[N+](C)(C)CCOP(=O)([O-])OCC(COCn1nnc2ccccc21)Oc1ccccc1 (stereo unspecified) | 28.2
CCCCOC(COCc1ccccc1)COP(=O)([O-])OCC[N+](C)(C)C (stereo unspecified) | > 50
CCCCOC(COCn1nnc2ccccc21)COP(=O)([O-])OCC[N+](C)(C)C (stereo unspecified) | > 50
CCCCCCCCCCCCCCCCCCOC(COCc1c(C)noc1C)COP(=O)([O-])OCC[N+](C)(C)C (stereo unspecified) | 1.3
CCCCCCCCCCCCCCCCCCOC(COCc1ccccc1)COP(=O)([O-])OCC[N+](C)(C)C (stereo unspecified) | 1.6
C=CCOCC(COP(=O)([O-])OCC[N+](C)(C)C)OCCCC (stereo unspecified) | 42.5
C[N+](C)(C)CCOP(=O)([O-])OCC(COCc1ccccc1)OCc1ccccc1 (stereo unspecified) | 4.15
CCCCCCCCCCCCCCCCOP(=O)([O-])OCC[N+](C)(C)C [MILTEFOSINE] | 0.22
Cc1noc(C)c1COCC(COP(=O)([O-])OCC[N+](C)(C)C)Oc1ccccc1 (stereo unspecified) | > 50
Cc1noc(C)c1COCC(COP(=O)([O-])OCC[N+](C)(C)C)OCc1ccccc1 (stereo unspecified) | > 50
C[N+](C)(C)CCOP(=O)([O-])OCC(COCn1nnc2ccccc21)OCc1ccccc1 (stereo unspecified) | > 50
CCCCOC(COCc1c(C)noc1C)COP(=O)([O-])OCC[N+](C)(C)C (stereo unspecified) | > 50
CCCCCCCCCCCCCCCCCCOC(COCn1nnc2ccccc21)COP(=O)([O-])OCC[N+](C)(C)C (stereo unspecified) | 0.66
Cc1noc(C)c1COCC(COP(=O)([O-])OCC[N+](C)(C)C)OCc1cccc2ccccc12 (stereo unspecified) | > 50
C[N+](C)(C)CCOP(=O)([O-])OCC(COCc1ccccc1)OCc1cccc2ccccc12 (stereo unspecified) | 13.8
C[N+](C)(C)CCOP(=O)([O-])OCC(COCn1nnc2ccccc21)OCc1cccc2ccccc12 (stereo unspecified) | 33.1
C=CCOCC(COP(=O)([O-])OCC[N+](C)(C)C)OCCCCCCCCCCCCCCCCCC (stereo unspecified) | 6.75
C=CCOCC(COP(=O)([O-])OCC[N+](C)(C)C)OCc1cccc2ccccc12 (stereo unspecified) | 26.7
C[N+](C)(C)CCOP(=O)([O-])OCC(COCc1ccccc1)Oc1ccccc1 (stereo unspecified) | > 50

Test system: Leishmania donovani
Assay: Antileishmanial activity against Leishmania donovani infected macrophage
Type: functional, organism-based

SMILES | IC50 [nM]
CCCCCCCCCCCCCCCCOP(=O)([O-])OCC[N+](C)(C)C [MILTEFOSINE] | 1740
CCCCCCCCCCCCCCCCCCOC(COCn1nnc2ccccc21)COP(=O)([O-])OCC[N+](C)(C)C (stereo unspecified) | 780
